These are literature values, as cited in article PMC4871512, “Drug-Based Lead Discovery: The Novel Ablative Antiretroviral Profile of Deferiprone in HIV-1-Infected Cells and in HIV-Infected Treatment-Naive Subjects of a Double-Blind, Placebo-Controlled, Randomized Exploratory Trial” (PLoS ONE, 2016).

Where only a bound is given, the exact number is not on record here.

One data set deals with human or mouse epithelia. The arrangement: method as in PMID 24086341. Particulars: concentrations that ablate yeast and HIV-infected cells; cited from earlier work.
Data set [1] deals with HIV-infected cell lines and HIV-infected primary cells. The following applies: cited from earlier work.
The subject of data set [2] is HIV-1. The arrangement: method as in PMID 9715844. The following applies: cited from earlier work.
Another data set concerns DOHH. The arrangement: method as in PMID 12115536. The following applies: clinically relevant concentrations; cited from earlier work.
Data set [3] deals with productively infected macrophages. The arrangement: method as in PMID 7973634. The following applies: cited from earlier work.
The subject of data set [4] is HIV-1. The arrangement: method as in PMID 8793010. The following applies: culture; cited from earlier work.
The subject of data set [5] is HIV-1. The arrangement: method as in PMID 8648207, PMID 9498441, PMID 9952363. The following applies: after 12 weeks on monotherapy; cited from earlier work.
The mark [6] stands for this setting: clinically relevant concentrations.

Consider `Cc1cc(C2CCCCC2)n(O)c(=O)c1` [ciclopirox, 6-cyclohexyl-1-hydroxy-4-methylpyridin-2[1H]-one], for which, in the data set with human or mouse epithelia, the “acute toxicity at human or mouse epithelia” value is “does not cause acute toxicity”. Further, in data set [1] (ciclopirox at 30 μM), the “off-drug re-emergence of HIV-1 RNA synthesis, compared with deferiprone” value was “gave similar results”. The “antiretroviral activity of the paired 1,2-HOPO chelators” value in data set [1] is reported as “antiretrovirally active”. The “viral breakthrough during monotherapy” value in data set [1] (up to 5 weeks of monotherapy) is “neither allowed breakthrough”.

With `CC(=O)N(O)CCCCCNC(=O)CCC(=O)N(O)CCCCCNC(=O)CCC(=O)N(O)CCCCCN` [deferoxamine], in data set [1] (setting [6]), the “ablation of HIV-infected cells” value is “does not ablate HIV-infected cells” and the “antiretroviral activity in culture” value is “does not display antiretroviral activity in culture”. Also, in the data set on HIV-1 [2], the “dose-related antiretroviral effect in persons living with HIV-1” value is given as “does not display a dose-related antiretroviral effect”. Further, the “suppression of DOHH activity” value in the data set with DOHH is “does not achieve maximal suppression of DOHH activity”.

On to `NC(=O)NO` [hydroxyurea], for which, in data set [3], the “HIV-1 DNA” value was “depleted HIV-1 DNA”, the viral breakthrough entry is listed as “blocked breakthrough during three weeks of treatment” and the “viral rebound after cessation” value is given as “did not allow rebound after cessation”.

As to `NC(Cn1ccc(=O)c(O)c1)C(=O)O` (stereo not drawn) [mimosine], in data set [1] (treated HIV-infected cells), the “ribosomal presence of gag mRNA, amount of intra- and extracellular p24, budding of viral particles” value is listed as “suppress”.

Regarding `Cc1ccnc2c1NC(=O)c1cccnc1N2C1CC1` [nevirapine], the “time to viral breakthrough during monotherapy” value in the data set on HIV-1 [4] is recorded as at least 4 days.

For the molecule `Cc1cn([C@H]2C[C@H](N=[N+]=[N-])[C@@H](CO)O2)c(=O)[nH]c1=O` [zidovudine], the viral load decline in the data set on HIV-1 [5] is recorded as -0.3 log10. The “time to viral breakthrough during monotherapy” value with HIV-1 [4] is at least 4 days.
